Assay results published in PMC13083723 (Patterns, 2026).

Test system: Vero-E6 cells
Assay: cells
Assay type: cell-based
Details: Chlorocebus sabaeus, Vero C1008, 24 h, read-out: PL_Result

| SMILES | activation at 10 µM [%] |
| --- | --- |
| O=C(O)Cc1ccc(CCNS(=O)(=O)c2ccc(Cl)cc2)cc1 [SPE_K26813177] | -0.423 |
| O=[N+]([O-])c1ncc[nH]1 [SPE_K26824830] | -1.75 |
| O=c1c2ccccc2oc2ccccc12 [SPE_K27135764] | 4.69 |
| O=C(Cn1c(=O)sc2ccc(Cl)cc21)N1CCN(CCO)CC1 [SPE_K27293958] | 2.56 |
| O=C(O)c1cc(O)c2c(c1)C(=O)c1cccc(O)c1C2=O [SPE_K27335680] | -8.5 |
| Cc1cc(C)c2nc(-c3ccccn3)cc(C(=O)Nc3ccc(S(=O)(=O)Nc4onc(C)c4C)cc3)c2c1 [SPE_K27539181] | 7.09 |
| COc1ccc(Oc2c(Cl)cnn(C3c4ccccc4-c4ccccc43)c2=O)cc1 [SPE_K27732927] | -5.19 |
| C[C@@H](N)[C@@H](O)c1ccccc1 [SPE_K27853494] | -4.21 |
| C=C1C(=O)O[C@@H]2[C@H]3O[C@]3(C)CC/C=C(\C)CC[C@@H]12 [SPE_K28120222] | -7.03 |
| CC[n+]1c(-c2ccccc2)c2cc(N)ccc2c2ccc(N)cc21 [SPE_K28354016] | 9.76 |
| O=C(N[C@H]1CN2CCC1CC2)c1ccc(Cl)cc1 [SPE_K28863208] | -0.0405 |
| CN1CCC(=C2c3ccccc3CC(=O)c3sccc32)CC1 [SPE_K28936863] | -4.71 |
| CC(=O)OCC(=O)[C@@]1(O)CC[C@H]2[C@@H]3CCC4=CC(=O)C=C[C@]4(C)[C@@]3(F)[C@@H](O)C[C@@]21C [SPE_K29173907] | -3.84 |
| O=S(=O)(Cc1ccccc1)Nc1ccc(-c2ccc3c(cnn3-c3ccc(F)cc3)c2)c(C(F)(F)F)c1 [SPE_K29328421] | -4.77 |
| CC(=O)Nc1nc(C)c(-c2ccc(Cl)c(S(=O)(=O)NCCO)c2)s1 [SPE_K29395450] | -9.8 |
| C=CCN1C[C@H](C)N([C@H](c2ccc(C(=O)N(CC)CC)cc2)c2cccc(OC)c2)C[C@H]1C [SPE_K29546239] | 1.37 |
| COc1cc(C(=S)N2CCOCC2)cc(OC)c1OC [SPE_K29570907] | -7.35 |
| CN1CCN(CCc2ccc(Cl)c(Cl)c2)CC1 [SPE_K29668683] | 11.7 |
| O=C(Cc1ccc(-c2ccc(OCCN3CCOCC3)cc2)cn1)NCc1ccccc1 [SPE_K29968218] | -4.21 |
| Cc1cccc(Nc2ccncc2S(=O)(=O)NC(=O)NC(C)C)c1 [SPE_K30480208] | -3.18 |
| CN1CCC[C@@H]1Cc1c[nH]c2ccc(CCS(=O)(=O)c3ccccc3)cc12 [SPE_K30652337] | 1.82 |

| SMILES | activation at 10 µM [%] |
| --- | --- |
| O=C(O)C(=O)c1cn(Cc2ccccc2)c2ccc(-c3ccc(OC(F)(F)F)cc3)cc12 [SPE_K30882994] | 1.29 |
| N#Cc1ccc(N2CCN(C(=O)COc3ccc4[nH]cc(CCN)c4c3)CC2)cc1 [SPE_K31092604] | 1.38 |
| Nn1cnc2cc3ccccc3cc2c1=O [SPE_K31329721] | -8.33 |
| Cc1c(-c2ccnn2C)cc(C(=O)NCc2ccc(S(C)(=O)=O)cn2)c(=O)n1-c1cccc(C(F)(F)F)c1 [SPE_K31476763] | -9.37 |
| COc1nc(C)cnc1NS(=O)(=O)c1cccnc1-c1ccc(-c2nnco2)cc1 [SPE_K31553034] | -4.16 |
| Fc1ccc(CN2CCC(Nc3ccc(C(F)(F)F)nn3)CC2)cc1F [SPE_K31802667] | 4.7 |
| O=C1N=C2NN=CC2C(=O)N1 (stereo not shown) [SPE_K31841515] | 2.22 |
| N#Cc1c(Oc2ccc(F)c(NC(=O)Cc3cccc(C(F)(F)F)c3)c2)ccc2nc(NC(=O)C3CC3)sc12 [SPE_K31866293] | 1.45 |
| CCN(CCCOc1ccc2c(Nc3cc(CC(=O)Nc4cccc(F)c4)[nH]n3)ncnc2c1)CCOP(=O)(O)O [SPE_K31928526] | -11.2 |
| CCCCCCCCCCCCCCCCCCCCCC(=O)Nc1ccn([C@@H]2O[C@H](CO)[C@@H](O)[C@@H]2O)c(=O)n1 [SPE_K32007074] | -0.592 |
| Nc1ccc(S(=O)(=O)Nc2ccc(Cl)nn2)cc1 [SPE_K32021043] | 5.81 |
| Cc1ccc(S(=O)(=O)NC(=O)NN2CCCCCC2)cc1 [SPE_K32164935] | -1.35 |
| Fc1ccc(C(OCCN2CCN(CCCc3ccccc3)CC2)c2ccc(F)cc2)cc1 [SPE_K32501161] | -3.21 |
| CCN(CC)C(=S)SSC(=S)N(CC)CC [SPE_K32744045] | 5.11 |
| O=C(O)CCNc1cc(N2CCc3ccccc3CC2)nc(-c2ccccn2)n1 [SPE_K32847255] | -5.77 |
| CNCCc1ccc(O)c(O)c1 [SPE_K33151569] | -7.82 |
| CC(=O)Nc1ccc(CC(=O)O)cc1 [SPE_K33483813] | 2.74 |
| CCOC(=O)c1ncc2[nH]c3ccc(OCc4ccccc4)cc3c2c1COC [SPE_K33882852] | -9.36 |
| Cc1coc2c1C(=O)C(=O)c1c-2ccc2c(C)cccc12 [SPE_K34073885] | 1.44 |
| CC(=O)Nc1nc2c(Oc3cc(-c4ccc(C(F)(F)F)cc4)ncn3)cccc2s1 [SPE_K34185671] | -12.4 |
| CC(C)(C)NC[C@H](O)c1ccc(O)c(CO)c1 [SPE_K34469523] | -6.61 |

| SMILES | activation at 10 µM [%] |
| --- | --- |
| CC[C@@H](CO)NC(=O)[C@@H]1C=C2c3cccc4[nH]cc(c34)C[C@H]2N(C)C1 [SPE_K34685430] | -5.04 |
| Cc1ccc(C(=O)Nc2ccc(CN3CCN(C)CC3)c(C(F)(F)F)c2)cc1C#Cc1cnc2[nH]ncc2c1 [SPE_K35329391] | -3.83 |
| Cc1c(Cl)cccc1S(=O)(=O)Nc1nc(NCCc2ccccc2)nc2c1CN(Cc1ccccc1)CC2 [SPE_K35772771] | -25 |
| C[C@@H]1CN(CC(=O)Nc2ccc3c(c2)Cc2cccc(-c4cc(=O)cc(N5CCOCC5)o4)c2S3)C[C@H](C)O1 [SPE_K36016295] | 15.1 |
| CN(C)C(=N)NCCC[C@H](N)C(=O)O [SPE_K36269323] | -6.39 |
| Cc1ccc2nc(N)nc(O)c2c1Sc1ccncc1 [SPE_K36636143] | 2.73 |
| C[C@H](O)[C@H](O)[C@H]1CNc2[nH]c(N)nc(=O)c2N1 [SPE_K36859431] | -1.35 |
| CCCCCCCCCCCCCCCCO [SPE_K37203094] | 1.52 |
| CC(=O)c1ccc2c(c1)N(CCCN(C)C)c1ccccc1S2 [SPE_K37814297] | 27.3 |
| O=C(Oc1cc(S(=O)(=O)c2ccccc2)ccc1[N+](=O)[O-])c1ccc(Cl)cc1 [SPE_K37933329] | -5.26 |
| C[C@@H]1C[C@H]2[C@@H]3C[C@H](F)C4=CC(=O)C=C[C@]4(C)[C@@]3(Cl)[C@@H](O)C[C@]2(C)[C@H]1C(=O)COC(=O)C(C)(C)C [SPE_K38003476] | -1.81 |
| CCCCNc1cc(C(=O)O)cc(S(N)(=O)=O)c1Oc1ccccc1 [SPE_K38197229] | -2.26 |
| CNc1ncc2cc(-c3cc(NC(=O)NCCC(C)(C)C)c(F)cc3C)c(C)nc2n1 [SPE_K38385169] | -2.79 |
| COc1cc(O)c(C(=O)c2ccccc2)cc1S(=O)(=O)O [SPE_K38602774] | -11.2 |
| Oc1cccc(Nc2ccc(Nc3cccc(O)c3)nn2)c1 [SPE_K38687824] | -9.16 |
| COc1ccc(-n2c(C)c([N+](=O)[O-])c3ccc(O)cc32)cc1 [SPE_K39166528] | -10.4 |
| CC(C)Oc1ccc(-c2cnc3c(-c4ccnc5ccccc45)cnn3c2)cc1 [SPE_K39381259] | -4.31 |
| CCCCc1nn(-c2ccccc2C(F)(F)F)c(=O)n1Cc1ccc(-c2ccccc2S(=O)(=O)NC(=O)c2sccc2C)cc1 [SPE_K39733634] | -1.37 |
| N#Cc1cccc(-c2nc(-c3cccnc3)no2)c1 [SPE_K40176866] | -7.54 |
| CC[C@]12CCCN3CCc4c(n(c5ccccc45)C(=O)C1)[C@@H]32 [SPE_K40227168] | -8.29 |
| Cc1nccc2[nH]c(=O)ccc12 [SPE_K40715924] | -2.15 |

| SMILES | activation at 10 µM [%] |
| --- | --- |
| C=CCN1CC[C@]23c4c5ccc(O)c4O[C@H]2[C@@H](OCCOCCOCCOCCOCCOCCOCCOC)CC[C@@]3(O)[C@H]1C5 [SPE_K41458421] | -3.45 |
| CC(C)[C@H](CO)Nc1nc(Nc2ccc(C(=O)O)c(Cl)c2)c2ncn(C(C)C)c2n1 [SPE_K41564320] | 1.13 |
| COc1cc2ncnc(Nc3cccc(Cl)c3F)c2cc1OC(=O)N1CCN(C)C[C@H]1C [SPE_K41626799] | -12.8 |
| Oc1cc(Cl)ccc1Oc1ccc(Cl)cc1Cl [SPE_K41731458] | 0.158 |
| O=C(O)C1=CCCN(CCON=C(c2ccccc2)c2ccccc2)C1 [SPE_K42221274] | 0.196 |
| CCOc1cccc(NC(=O)c2ccc(N3CCCC3)c(C(F)(F)F)c2)c1 [SPE_K42536037] | -13.1 |
| COc1cccc(-c2cc(NCc3ccc4c(c3)OCO4)nc(N)n2)c1 [SPE_K42624714] | -1.5 |
| CC(=O)N(OCc1ccccc1)[C@@H]1c2cc(C#N)ccc2OC(C)(C)[C@H]1O [SPE_K42679050] | 0.738 |
| COc1cc2c(cc1OC)C(c1ccc(N)cc1)=NNC(=O)C2 [SPE_K42859542] | 0.928 |
| CC(=O)c1ccc2c(c1)N(CCCN1CCN(CCO)CC1)c1ccccc1S2 [SPE_K42938903] | 52.6 |
| CC(C)S(=O)(=O)NC[C@H](C)c1ccc(-c2ccc(CCNS(C)(=O)=O)cc2)cc1 [SPE_K42981054] | -11.8 |
| O=c1c(O)c(-c2cc(O)c(O)c(O)c2)oc2cc(O)cc(O)c12 [SPE_K43149758] | -18.6 |
| C[C@@H](NC(=O)c1ncnc(N)c1Cl)c1ncc(C(=O)Nc2cc(C(F)(F)F)c(Cl)cn2)s1 [SPE_K43410529] | -2.41 |
| O=c1c(-c2ccc(O)cc2)coc2cc(O)cc(O)c12 [SPE_K43797669] | 24.8 |
| N=C(N)NCc1cccc(I)c1 [SPE_K43860855] | -5.07 |
| NCCc1ccc(O)c(O)c1 [SPE_K43887077] | -4.01 |
| Cc1ccc2c(c1CCC(=O)O)CC[C@@H](NS(=O)(=O)c1ccc(Cl)cc1)C2 [SPE_K43975632] | 0.256 |
| Cc1cc(-c2nncc3c(C(C)(C)C)c(OCc4ncnn4C)nn23)no1 [SPE_K44022883] | -4.38 |
| Cc1nc(-c2cn3c(n2)-c2ccc(-c4cnn(C(C)(C)C(N)=O)c4)cc2OCC3)n(C(C)C)n1 [SPE_K44844162] | 4.98 |
